In patent US20100099561A1, “HETEROBICYCLIC ALKYLTHIO-BRIDGED ISOXAZOLINES” (E.I. DU PONT DE NEMOURS AND COMPANY, priority 2008, published 2010):

What was measured:
Type in all cases: in vivo
[1] = test system: barnyardgrass (Echinochloa crus-galli); experiment: Test A preemergence, barnyardgrass; details: 0 to 100 scale (0 no effect, 100 complete control)
Outline: (§1)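 Species planted together in a loam soil and sand blend received compound either as a preemergence soil spray or as a postemergence treatment when 2–10 cm tall with one to two leaves. About ten days later, injury was visually rated relative to untreated plants on a 0–100 scale.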

[2] = test system: large crabgrass (Digitaria sanguinalis); experiment: Test A preemergence, large crabgrass; details: 0 to 100 scale (0 no effect, 100 complete control)
Outline: as §1

[3] = test system: giant foxtail (Setaria faberi); experiment: Test A preemergence, giant foxtail; details: 0 to 100 scale (0 no effect, 100 complete control)
Outline: as §1

[4] = test system: morningglory (Ipomoea spp.); experiment: Test A preemergence, morningglory; details: 0 to 100 scale (0 no effect, 100 complete control)
Outline: as §1

[5] = test system: pigweed (Amaranthus retroflexus); experiment: Test A preemergence, pigweed; details: 0 to 100 scale (0 no effect, 100 complete control)
Outline: as §1

[6] = test system: velvetleaf (Abutilon theophrasti); experiment: Test A preemergence, velvetleaf; details: 0 to 100 scale (0 no effect, 100 complete control)
Outline: as §1

[7] = test system: wheat (Triticum aestivum); experiment: Test A preemergence, wheat; details: 0 to 100 scale (0 no effect, 100 complete control)
Outline: as §1

corn (Zea mays) [8] = experiment: Test A preemergence, corn; details: 0 to 100 scale (0 no effect, 100 complete control)
Outline: as §1

[9] = test system: barnyardgrass (Echinochloa crus-galli); experiment: Test A postemergence, barnyardgrass; details: 0 to 100 scale (0 no effect, 100 complete control)
Outline: as §1

[10] = test system: large crabgrass (Digitaria sanguinalis); experiment: Test A postemergence, large crabgrass; details: 0 to 100 scale (0 no effect, 100 complete control)
Outline: as §1

[11] = test system: giant foxtail (Setaria faberi); experiment: Test A postemergence, giant foxtail; details: 0 to 100 scale (0 no effect, 100 complete control)
Outline: as §1

[12] = test system: morningglory (Ipomoea spp.); experiment: Test A postemergence, morningglory; details: 0 to 100 scale (0 no effect, 100 complete control)
Outline: as §1

[13] = test system: pigweed (Amaranthus retroflexus); experiment: Test A postemergence, pigweed; details: 0 to 100 scale (0 no effect, 100 complete control)
Outline: as §1

[14] = test system: velvetleaf (Abutilon theophrasti); experiment: Test A postemergence, velvetleaf; details: 0 to 100 scale (0 no effect, 100 complete control)
Outline: as §1

[15] = test system: wheat (Triticum aestivum); experiment: Test A postemergence, wheat; details: 0 to 100 scale (0 no effect, 100 complete control)
Outline: as §1

corn (Zea mays) [16] = experiment: Test A postemergence, corn; details: 0 to 100 scale (0 no effect, 100 complete control)
Outline: as §1

rice (Oryza sativa) = experiment: Test B flooded paddy test, rice; details: Flood, scale 0 to 100
Outline: (§2)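 2-leaf plants; pots flooded 3 cm above soil; compound added to paddy water; depth maintained. Greenhouse 13–15 d. Visual rating vs controls, 0 (no effect) to 100 (complete control); dash = no result.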

[17] = test system: umbrella sedge (Cyperus difformis); experiment: Test B flooded paddy test, umbrella sedge; details: Flood, scale 0 to 100
Outline: as §2

[18] = test system: ducksalad (Heteranthera limosa); experiment: Test B flooded paddy test, ducksalad; details: Flood, scale 0 to 100
Outline: as §2

[19] = test system: barnyardgrass (Echinochloa crus-galli); experiment: Test B flooded paddy test, barnyardgrass; details: Flood
Outline: as §2

CC1(C)CC([S+]([O-])Cc2c(C(F)(F)F)nc3ccon3c2=O)=NO1 (stereo not drawn) [Compound 43]
Plant response rating, Barnyardgrass ([1]; 125 g ai/ha): 10
Plant response rating, Barnyardgrass ([1]; 500 g ai/ha): 70
Plant response rating, Crabgrass, Large ([2]; 125 g ai/ha): 0
Plant response rating, Crabgrass, Large ([2]; 500 g ai/ha): 60
Plant response rating, Foxtail, Giant ([3]; 125 g ai/ha): 0
Plant response rating, Foxtail, Giant ([3]; 500 g ai/ha): 80
Plant response rating, Morningglory ([4]; 125 g ai/ha): 0
Plant response rating, Morningglory ([4]; 500 g ai/ha): 0
Plant response rating, Pigweed ([5]; 125 g ai/ha): 0
Plant response rating, Pigweed ([5]; 500 g ai/ha): 0
Plant response rating, Velvetleaf ([6]; 125 g ai/ha): 0
Plant response rating, Velvetleaf ([6]; 500 g ai/ha): 0
Plant response rating, Wheat ([7]; 125 g ai/ha): 0
Plant response rating, Wheat ([7]; 500 g ai/ha): 0
Plant response rating, Corn (corn (Zea mays) [8]; 125 g ai/ha): 0
Plant response rating, Corn (corn (Zea mays) [8]; 500 g ai/ha): 0
Plant response rating, Barnyardgrass ([9]; 125 g ai/ha): 40
Plant response rating, Barnyardgrass ([9]; 500 g ai/ha): 70
Plant response rating, Crabgrass, Large ([10]; 125 g ai/ha): 10
Plant response rating, Crabgrass, Large ([10]; 500 g ai/ha): 60
Plant response rating, Foxtail, Giant ([11]; 125 g ai/ha): 30
Plant response rating, Foxtail, Giant ([11]; 500 g ai/ha): 70
Plant response rating, Morningglory ([12]; 125 g ai/ha): 0
Plant response rating, Morningglory ([12]; 500 g ai/ha): 40
Plant response rating, Pigweed ([13]; 125 g ai/ha): 0
Plant response rating, Pigweed ([13]; 500 g ai/ha): 0
Plant response rating, Velvetleaf ([14]; 125 g ai/ha): 0
Plant response rating, Velvetleaf ([14]; 500 g ai/ha): 0
Plant response rating, Wheat ([15]; 125 g ai/ha): 0
Plant response rating, Wheat ([15]; 500 g ai/ha): 0
Plant response rating, Corn (corn (Zea mays) [16]; 125 g ai/ha): 0
Plant response rating, Corn (corn (Zea mays) [16]; 500 g ai/ha): 40
Plant response rating, Rice (rice (Oryza sativa); 31 g ai/ha): 0
Plant response rating, Rice (rice (Oryza sativa); 62 g ai/ha): 0
Plant response rating, Rice (rice (Oryza sativa); 125 g ai/ha): 0
Plant response rating, Rice (rice (Oryza sativa); 250 g ai/ha): 0
Plant response rating, Sedge, Umbrella ([17]; 31 g ai/ha): 0
Plant response rating, Sedge, Umbrella ([17]; 62 g ai/ha): 0
Plant response rating, Sedge, Umbrella ([17]; 125 g ai/ha): 20
Plant response rating, Sedge, Umbrella ([17]; 250 g ai/ha): 30
Plant response rating, Ducksalad ([18]; 31 g ai/ha): 0
Plant response rating, Ducksalad ([18]; 62 g ai/ha): 0
Plant response rating, Ducksalad ([18]; 125 g ai/ha): 0
Plant response rating, Ducksalad ([18]; 250 g ai/ha): 25
Plant response rating, Barnyardgrass ([19]; 31 g ai/ha, scale 0 to 100): 0
Plant response rating, Barnyardgrass ([19]; 62 g ai/ha, scale 0 to 100): 0
Plant response rating, Barnyardgrass ([19]; 125 g ai/ha, scale 0 to 100): 0
Plant response rating, Barnyardgrass ([19]; 250 g ai/ha, scale 0 to 100 (0 no effect, 100 complete control)): 0
